“Also recorded” adds a separate entry of the source. Where a name gives a salt, the structure may show the parent alone.
Assays:
Stat1 [1] = test: Mechanistic studies of Stat1 tyrosine phosphorylation; assay type: cell-based
endogenous Stat1 genes = test: Expression of endogenous Stat1 target genes (quantitative real-time PCR); assay type: cell-based
Experimental: This is followed by another confirmation assay utilizing quantitative real-time PCR measuring expression of endogenous target genes of each Stat. In this assay the cells are incubated as described above. However, after the incubation the cells are lysed and assessed for increased or decreased expression of target genes specific for the respective Stat molecule, e.g., Stat1, interferon-responsive factor (IRF)-1, GADD45[…], and IFI-16; for Stat3, SOCS3, BCL-6, and KLF-4; and, for Stat5, CIS, PIM-1, and MMP3.

[2] = system: MCF-7 breast cancer cells; test: Growth inhibition by IFN-γ in breast cancer cells; assay type: cell-based, human; settings: Stat1-dependent; MCF-7 cells (FIG. 8)
Stat1 [3] = test: Stat1 luciferase reporter cell screen (NIH3T3 cells, IFN-γ stimulated); assay type: cell-based; settings: screen for enhancers of Stat1 function
Experimental: A cell-based assay system for each Stat1, Stat3 and Stat5 was developed to identify compounds that modulate the respective Stat activity. Although the details for each system are slightly different, as described below, the basic principle are the same. […]
Cells were selected in geneticin (G418) to isolate clones that had stably integrated the plasmid. Individual clones were isolated and luciferase expression was measured by luminometry in the presence and absence of a stimulator of the specific Stat of interest. […]
All three cell-based screening systems were adapted for use in 384-well plates, which were then used to screen a library of 1120 compounds (the Prestwick Myeloma Collection available from Prestwick Chemical, Illkirch, France). […] After 6 hours, 40 μl of 0.5× Bright-Glo luciferase substrate (diluted in PBS) is added, and luciferase activity is quantitated on a Luminoskan luminometer (Helsinki, Finland). […]

Stat3 = Stat3 luciferase reporter cell assay (U3A cells, IL-6 stimulated); assay type: cell-based; settings: for inhibition of Stat3 activity in validation studies: compounds tested individually, dose responses analyzed, selective versus NF-κB; for enhancement of Stat3 function: Stat3-dependent luciferase screen; for Stat3-dependent luciferase activity, primary screen: library screen in 384-well plates, IL-6 stimulated; for induction of luciferase in the Stat3 reporter system: cytokine treatment, test of reporter specificity
From the text: A cell-based assay system for each Stat1, Stat3 and Stat5 was developed to identify compounds that modulate the respective Stat activity. Although the details for each system are slightly different, as described below, the basic principle are the same. Appropriate cell lines (NIH3T3 for Stat1, U3A for Stat3, and T47D for Stat5) were transfected with a plasmid containing a luciferase reporter gene under the control of a promoter responsive to the indicated Stat, e.g., Stat1, Stat3 or Stat5, as well as a neomycin phosphotransferase cassette (BRIGHT GLO Luciferase Assay Kit available from Promega (Madison, Wis.). The reporter plasmid used in the Stat1 and Stat3 cell lines is described in Lynch et al., Cancer Research, 67:1254-61 (2007), which is herein incorporated by reference in its entirety. The nuclic acid binding sequence of Stat5 use in the reporter plasmid is denoted as region B in Walker et al., Oncogene, 26:224-233 (2007), which is herein incorporated by reference in its entirety.
Cells were selected in geneticin (G418) to isolate clones that had stably integrated the plasmid. Individual clones were isolated and luciferase expression was measured by luminometry in the presence and absence of a stimulator of the specific Stat of interest. Clones having a low basal luciferase expression, prominent induction by a specific stimulus (IFN-γ for Stat1, (IL)-6 for Stat3 and prolactin for Stat5), no induction with an irrelevant stimulus, and stable properties after prolonged cell culture or cryopreservation and thawing were selected. […] Several of these cell lines for each Stat construct were deposited with American Type Culture Collection of Manassas, Va. For example, cell lines having the Stat1 inducible promoter were deposited under ATCC Nos. Cell lines having the Stat3 inducible promoter were deposited under ATCC Nos. Cell lines having the Stat5 inducible promoter were deposited under ATCC numbers Nos.
To ensure the specificity of the reporter systems, the Stat3 reporter cell line and the NF-κB reporter system were compared. Each cell type was either untreated, treated with IL-6 (which activates Stat3 in both systems) or treated with TNF-α (which activates NF-κB in both).
All three cell-based screening systems were adapted for use in 384-well plates, which were then used to screen a library of 1120 compounds (the Prestwick Myeloma Collection available from Prestwick Chemical, Illkirch, France). […] Briefly, 2,500 cells are plated per well in 30 μl of medium in a 384 well plate and grown in Dulbecco's modified Eagle's medium (DMEM) supplemented with 10% fetal calf serum in an incubator with a 95% air/5% CO2 atmosphere at 37° C. After a 16 hour incubation to allow cells to adhere, 100 nl of the test compound is added per well and incubated for one hour, after which the activating cytokine (IFN-γ, IL-6, and prolactin, respectively) are added to each well in 10 μl of medium. After 6 hours, 40 μl of 0.5× Bright-Glo luciferase substrate (diluted in PBS) is added, and luciferase activity is quantitated on a Luminoskan luminometer (Helsinki, Finland).

NF-κB = NF-κB luciferase reporter cell assay (293T cells, TNF-α stimulated); assay type: cell-based; settings: for NF-κB activity, primary screen: NF-κB luciferase reporter, control for non-specific effects; for induction of luciferase in the NF-κB reporter cells: cytokine treatment, test of reporter specificity
Experimental: A parallel system was also developed in which luciferase was under the control of the transcription factor NF-κB (cell lines deposited on under ATCC Nos.). When these 293T cells are treated with tumor necrosis factor (TNF)-α, they show prominent induction of luciferase. This provided an independent control to exclude non-specific effects.
To ensure the specificity of the reporter systems, the Stat3 reporter cell line and the NF-κB reporter system were compared. Each cell type was either untreated, treated with IL-6 (which activates Stat3 in both systems) or treated with TNF-α (which activates NF-κB in both). IL-6 led to approximately a five-fold induction of luciferase in the Stat3 reporter system, but induced no change in the NF-κB reporter cells. Conversely, TNF-α induced a 12-fold induction of luciferase in the NF-κB reporter cells, but led to no change in the Stat3-reporter system. The Stat1 and Stat5 reporter systems show similar characteristics. All three cell-based screens are able to reproducibly identify active and specific compounds.
The compounds that show selective activity in the primary screen (e.g., 25% or more difference in luciferase activity in the presence versus the absence of the compound and less than 12% difference in luciferase activity in the Nf-κB assay in the presence versus the absence of the compound) were then validated in a dose-response assay using the appropriate reporter cell lines.

Oc1ccccc1-c1ccc2cccnc2n1 [2-(1,8-Naphthyridin-2-yl)phenol]
magnitude and duration of Stat1 tyrosine phosphorylation (Stat1 [1]): increasing | expression of endogenous Stat1 genes (endogenous Stat1 genes): enhanced | growth inhibitory effects of IFN-γ on human breast cancer cell lines [2]: accentuated; also recorded: enhances | Stat1 modulator class as named in figure legend (Stat1 [3]): Stat1 activator

O=S1(=O)CCC(OC2CCS(=O)(=O)C2)C1 (stereo not drawn) [3,3′-oxybis[tetrahydrothiophene, 1,1,1′,1′-tetraoxide]
Stat3 modulator class as named in figure legend (Stat3): Stat3 inhibitor

CCCN(CCC)C(=O)CC(c1ccccc1)c1ccccc1O (stereo not drawn) [3-(2-hydroxyphenyl)-3-phenyl-N,N-dipropylpropanamide]
inhibition of Stat3 activity in validation studies (Stat3): significantly and specifically inhibit Stat3 activity

Nc1ncnc2c1ncn2[C@@H]1O[C@H](COP(=O)(O)O)[C@@H](O)[C@H]1O.O [adenosine 5′-monophosphate monohydrate]
enhancement of Stat3 function (Stat3): specifically enhance Stat3 function

C=CCc1ccccc1OCC(O)CNC(C)C (stereo not drawn) [alprenolol hydrochloride]
inhibition of Stat3 activity in validation studies (Stat3): significantly and specifically inhibit Stat3 activity

C[C@@H]1C[C@@H]([C@H](O)CC2CC(=O)NC(=O)C2)C(=O)[C@@H](C)C1 [cycloheximide]
NF-κB activity, primary screen (NF-κB): inhibited both | Stat3-dependent luciferase activity, primary screen (Stat3): inhibited both

COc1cccc2c1C(=O)c1c(O)c3c(c(O)c1C2=O)C[C@@](O)(C(C)=O)C[C@@H]3O[C@H]1C[C@H](N)[C@H](O)[C@H](C)O1 [daunorubicin]
NF-κB activity, primary screen (NF-κB): inhibited both | Stat3-dependent luciferase activity, primary screen (Stat3): inhibited both

COc1cccc2c1C(=O)c1c(O)c3c(c(O)c1C2=O)C[C@@](O)(C(=O)CO)C[C@@H]3O[C@H]1C[C@H](N)[C@H](O)[C@H](C)O1 [doxorubicin]
NF-κB activity, primary screen (NF-κB): inhibited both | Stat3-dependent luciferase activity, primary screen (Stat3): inhibited both

CNCCC(Oc1ccc(C(F)(F)F)cc1)c1ccccc1 (stereo not drawn) [fluoxetine hydrochloride]
inhibition of Stat3 activity in validation studies (Stat3): significantly and specifically inhibit Stat3 activity

N=C(N)N/N=C/c1c(Cl)cccc1Cl [guanabenz acetate]
inhibition of Stat3 activity in validation studies (Stat3): significantly and specifically inhibit Stat3 activity

O=P1(NCCCl)OCCCN1CCCl (stereo not drawn) [ifosfamide]
inhibition of Stat3 activity in validation studies (Stat3): significantly and specifically inhibit Stat3 activity

COC(=O)Nc1nc2ccc(C(=O)c3ccccc3)cc2[nH]1 [mebendazole]
enhancement of Stat3 function (Stat3): specifically enhance Stat3 function

O=C1c2c(O)ccc(O)c2C(=O)c2c(NCCNCCO)ccc(NCCNCCO)c21 [mitoxantrone]
NF-κB activity, primary screen (NF-κB): inhibited both | Stat3-dependent luciferase activity, primary screen (Stat3): inhibited both

CCOC(=O)Nc1ccc2c(c1)N(C(=O)CCN1CCOCC1)c1ccccc1S2 [moricizine hydrochloride]
inhibition of Stat3 activity in validation studies (Stat3): significantly and specifically inhibit Stat3 activity

O=C(N/N=C/c1ccc([N+](=O)[O-])o1)c1ccc(O)cc1 [nifuroxazide]
inhibition of Stat3 activity in validation studies (Stat3): significantly and specifically inhibit Stat3 activity

COC(=O)Nc1nc2ccc(C(=O)c3cccs3)cc2[nH]1 [nocodazole]
enhancement of Stat3 function (Stat3): specifically enhance Stat3 function

CNCCC=C1c2ccccc2CCc2ccccc21 [nortriptyline hydrochloride]
enhancement of Stat3 function (Stat3): specifically enhance Stat3 function

COc1cc([C@@H]2c3cc4c(cc3[C@H](O)[C@H]3COC(=O)[C@H]23)OCO4)cc(OC)c1OC [podophyllotoxin]
enhancement of Stat3 function (Stat3): specifically enhance Stat3 function

CN(C)CCCN1c2ccccc2Sc2ccccc21 [promazine hydrochloride]
enhancement of Stat3 function (Stat3): specifically enhance Stat3 function

CC[N+](C)(CC)CCC[n+]1c(-c2ccccc2)c2cc(N)ccc2c2ccc(N)cc21.[I-].[I-] [propidium iodide]
NF-κB activity, primary screen (NF-κB): inhibited both | Stat3-dependent luciferase activity, primary screen (Stat3): inhibited both

NC(=O)c1ncn([C@@H]2O[C@H](CO)[C@@H](O)[C@H]2O)n1 [ribavirin]
enhancement of Stat3 function (Stat3): specifically enhance Stat3 function

CN(C)C/C=C(/c1ccc(Br)cc1)c1cccnc1 [zimelidine dihydrochloride monohydrate]
enhancement of Stat3 function (Stat3): specifically enhance Stat3 function

IL-6: cytokine which activates Stat3; specific stimulus of the Stat3 reporter
induction of luciferase in the NF-κB reporter cells (NF-κB): no change | induction of luciferase in the Stat3 reporter system (Stat3): five-fold

TNF-α
induction of luciferase in the NF-κB reporter cells (NF-κB): 12 fold | induction of luciferase in the Stat3 reporter system (Stat3): no change

deptropine citrate
enhancement of Stat3 function (Stat3): specifically enhance Stat3 function

solanine alpha
inhibition of Stat3 activity in validation studies (Stat3): significantly and specifically inhibit Stat3 activity

Source: patent US8445517B2, “Stat modulators” (Dana-Farber Cancer Institute, priority 2009, dated 2013)
